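Exposure lasted 48 hours, with cells grown in 96-well plates and compounds tested at five concentrations. Here, GI50 denotes the concentration required for 50% inhibition of growth. TGI is the concentration that stops growth completely.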
Columns and labels:
Assay in all cases: NCI-60 cell line screen, 48 h
HL-60(TB) leukemia = tested on: HL-60(TB) leukemia
HOP-92 NSCLC = tested on: HOP-92 NSCLC
OVCAR-3 ovarian = tested on: OVCAR-3 ovarian
T-47D breast = tested on: T-47D breast
HOP-62 NSCLC = tested on: HOP-62 NSCLC
SR leukemia = tested on: SR leukemia
MDA-MB-435 = tested on: MDA-MB-435
NCI-H23 lung = tested on: NCI-H23 lung
UACC-257 melanoma = tested on: UACC-257 melanoma
SF-295 CNS = tested on: SF-295 CNS
U251 CNS = tested on: U251 CNS
SNB-19 CNS = tested on: SNB-19 CNS
786-0 renal = tested on: 786-0 renal
UACC-62 melanoma = tested on: UACC-62 melanoma
K-562 leukemia = tested on: K-562 leukemia
HCC-2998 colon = tested on: HCC-2998 colon
NCI/ADR-RES ovarian = tested on: NCI/ADR-RES ovarian
UO-31 renal = tested on: UO-31 renal
LOX IMVI melanoma = tested on: LOX IMVI melanoma
SF-539 CNS = tested on: SF-539 CNS
OVCAR-5 ovarian = tested on: OVCAR-5 ovarian
ACHN renal = tested on: ACHN renal
OVCAR-8 ovarian = tested on: OVCAR-8 ovarian
NCI-H226 lung = tested on: NCI-H226 lung
HT29 colon = tested on: HT29 colon
A498 renal = tested on: A498 renal
CCRF-CEM leukemia = tested on: CCRF-CEM leukemia
HS 578T breast = tested on: HS 578T breast
MOLT-4 leukemia = tested on: MOLT-4 leukemia
HCT-116 colon = tested on: HCT-116 colon
DU-145 prostate = tested on: DU-145 prostate
HCT-15 colon = tested on: HCT-15 colon
PC-3 prostate = tested on: PC-3 prostate
SK-MEL-5 melanoma = tested on: SK-MEL-5 melanoma
SW-620 colon = tested on: SW-620 colon
SK-OV-3 ovarian = tested on: SK-OV-3 ovarian
SK-MEL-28 melanoma = tested on: SK-MEL-28 melanoma
RXF 393 renal = tested on: RXF 393 renal
A549 NSCLC = tested on: A549 NSCLC
KM12 colon = tested on: KM12 colon
M14 melanoma = tested on: M14 melanoma
SN12C renal = tested on: SN12C renal
MDA-MB-231 breast = tested on: MDA-MB-231 breast
MALME-3M melanoma = tested on: MALME-3M melanoma
SK-MEL-2 melanoma = tested on: SK-MEL-2 melanoma
SF-268 CNS = tested on: SF-268 CNS
EKVX NSCLC = tested on: EKVX NSCLC
NCI-H460 lung = tested on: NCI-H460 lung
OVCAR-4 ovarian = tested on: OVCAR-4 ovarian
BT-549 breast = tested on: BT-549 breast
TK-10 renal = tested on: TK-10 renal
COLO 205 colon = tested on: COLO 205 colon
MCF7 breast = tested on: MCF7 breast
CAKI-1 renal = tested on: CAKI-1 renal
SNB-75 CNS = tested on: SNB-75 CNS

SMILES: COc1cccc(/C=C/C(=O)c2ccc(Cl)cc2Cl)c1OC
- GI50 (HL-60(TB) leukemia): 2.4 µM
- TGI (HL-60(TB) leukemia): 5.85 µM
- GI50 (HOP-92 NSCLC): 4.35 µM
- TGI (HOP-92 NSCLC): 19.5 µM
- GI50 (OVCAR-3 ovarian): 7.38 µM
- TGI (OVCAR-3 ovarian): 19.7 µM
- GI50 (T-47D breast): 8.59 µM
- TGI (T-47D breast): 25.5 µM
- GI50 (HOP-62 NSCLC): 16.6 µM
- TGI (HOP-62 NSCLC): 30.3 µM
- GI50 (SR leukemia): 2.28 µM
- TGI (SR leukemia): 9.67 µM
- GI50 (MDA-MB-435): 5.51 µM
- TGI (MDA-MB-435): 18.7 µM
- GI50 (NCI-H23 lung): 13.7 µM
- TGI (NCI-H23 lung): 26.6 µM
- GI50 (UACC-257 melanoma): 11.2 µM
- TGI (UACC-257 melanoma): 23.2 µM
- GI50 (SF-295 CNS): 15 µM
- TGI (SF-295 CNS): 32.5 µM
- GI50 (U251 CNS): 6.19 µM
- TGI (U251 CNS): 18.7 µM
- GI50 (SNB-19 CNS): 4.15 µM
- TGI (SNB-19 CNS): 14.9 µM
- GI50 (786-0 renal): 10.3 µM
- TGI (786-0 renal): 21.9 µM
- GI50 (UACC-62 melanoma): 10.6 µM
- TGI (UACC-62 melanoma): 24 µM
- GI50 (K-562 leukemia): 2.39 µM
- TGI (K-562 leukemia): 5.72 µM
- GI50 (HCC-2998 colon): 14.5 µM
- TGI (HCC-2998 colon): 27.7 µM
- GI50 (NCI/ADR-RES ovarian): 11.1 µM
- TGI (NCI/ADR-RES ovarian): 25.2 µM
- GI50 (UO-31 renal): 3.43 µM
- TGI (UO-31 renal): 17.4 µM
- GI50 (LOX IMVI melanoma): 2.64 µM
- TGI (LOX IMVI melanoma): 6.88 µM
- GI50 (SF-539 CNS): 14.1 µM
- TGI (SF-539 CNS): 29 µM
- GI50 (OVCAR-5 ovarian): 17.1 µM
- TGI (OVCAR-5 ovarian): 30.9 µM
- GI50 (ACHN renal): 14.3 µM
- TGI (ACHN renal): 28 µM
- GI50 (OVCAR-8 ovarian): 3.73 µM
- TGI (OVCAR-8 ovarian): 13.7 µM
- GI50 (NCI-H226 lung): 9.96 µM
- TGI (NCI-H226 lung): 29.6 µM
- GI50 (HT29 colon): 5.04 µM
- TGI (HT29 colon): 17.3 µM
- GI50 (A498 renal): 16.2 µM
- TGI (A498 renal): 30.5 µM
- GI50 (CCRF-CEM leukemia): 2.77 µM
- TGI (CCRF-CEM leukemia): 26.9 µM
- TGI (HS 578T breast): 39.8 µM
- GI50 (MOLT-4 leukemia): 3.04 µM
- TGI (MOLT-4 leukemia): 12.4 µM
- GI50 (HCT-116 colon): 2.31 µM
- TGI (HCT-116 colon): 5.85 µM
- GI50 (DU-145 prostate): 11.4 µM
- TGI (DU-145 prostate): 27.5 µM
- GI50 (HCT-15 colon): 3.76 µM
- TGI (HCT-15 colon): 12.9 µM
- GI50 (PC-3 prostate): 4.32 µM
- TGI (PC-3 prostate): 17.1 µM
- GI50 (SK-MEL-5 melanoma): 13.3 µM
- TGI (SK-MEL-5 melanoma): 28.1 µM
- GI50 (SW-620 colon): 2.98 µM
- TGI (SW-620 colon): 9.12 µM
- GI50 (SK-OV-3 ovarian): 15.4 µM
- TGI (SK-OV-3 ovarian): 28.7 µM
- GI50 (SK-MEL-28 melanoma): 14.2 µM
- TGI (SK-MEL-28 melanoma): 27.4 µM
- GI50 (RXF 393 renal): 4.07 µM
- TGI (RXF 393 renal): 15.8 µM
- GI50 (A549 NSCLC): 10.4 µM
- TGI (A549 NSCLC): 24.7 µM
- GI50 (KM12 colon): 2.74 µM
- TGI (KM12 colon): 13.1 µM
- GI50 (M14 melanoma): 13.7 µM
- TGI (M14 melanoma): 26.7 µM
- GI50 (SN12C renal): 5.73 µM
- TGI (SN12C renal): 19.9 µM
- GI50 (MDA-MB-231 breast): 12.3 µM
- TGI (MDA-MB-231 breast): 27.8 µM
- GI50 (MALME-3M melanoma): 13.8 µM
- TGI (MALME-3M melanoma): 28.2 µM
- GI50 (SK-MEL-2 melanoma): 4.58 µM
- TGI (SK-MEL-2 melanoma): 17.4 µM
- GI50 (SF-268 CNS): 12.9 µM
- TGI (SF-268 CNS): 41.5 µM
- GI50 (EKVX NSCLC): 13.6 µM
- TGI (EKVX NSCLC): 31.8 µM
- GI50 (NCI-H460 lung): 8.37 µM
- TGI (NCI-H460 lung): > 100 µM
- GI50 (OVCAR-4 ovarian): 11.3 µM
- TGI (OVCAR-4 ovarian): 34 µM
- GI50 (BT-549 breast): 5.93 µM
- TGI (BT-549 breast): 20.2 µM
- GI50 (TK-10 renal): 13.5 µM
- TGI (TK-10 renal): 27 µM
- GI50 (COLO 205 colon): 5.44 µM
- TGI (COLO 205 colon): 17.4 µM
- GI50 (MCF7 breast): 4.52 µM
- TGI (MCF7 breast): 32 µM
- GI50 (CAKI-1 renal): 12.6 µM
- TGI (CAKI-1 renal): 25.1 µM
- GI50 (SNB-75 CNS): 18 µM
- TGI (SNB-75 CNS): 33.8 µM
